Patent publication US20050119300A1, “Development of novel regulators of angiogenesis” (priority 2002, published 2005)

Legend:
[1] = tested on: VEGF-induced and bFGF-induced corneal neovascularization; details: further studies, reported; cited from earlier work
[2] = tested on: human vascular endothelial cells (HUVECS); assay: Endothelial cell proliferation, 3H-thymidine uptake assay; type: cell-based; details: for % Inhibition vs 10% Serum / Average ([3H]-thymidine incorporation, radioactivity) / Well 1 ([3H]-thymidine incorporation, radioactivity) / Well 2 ([3H]-thymidine incorporation, radioactivity) / Well 3 ([3H]-thymidine incorporation, radioactivity) / Well 4 ([3H]-thymidine incorporation, radioactivity): Table 1A
Procedure: After 20 h, [^3H]-thymidine (2 μCi/ml) was added to the culture medium for 2-4 h. The [^3H]-thymidine incorporation was stopped with ice-cold PBS (3 washes) and the cells were incubated with cold 10% trichloroacetic acid (TCA) for 10 min at 4C. The cells were further incubated with TCA at room temperature for 10 min and washed three times with PBS. The cells were solubilized overnight with 1N NaOH and neutralized with an equivalent amount of 1N HCl before radioactivity was determined. […]

[3] = tested on: vascular endothelial growth factor (VEGF) and basic fibroblast growth factor (bFGF) induced angiogenesis; details: has been reported; cited from earlier work
[4] = tested on: endothelial cells; details: reported; cited from earlier work

SMILES: O=C1CC[C@H](N2C(=O)c3ccccc3C2=O)C(=O)N1 [S(−)-enantiomer of thalidomide]
- anti-angiogenic activity in VEGF-induced and bFGF-induced corneal neovascularization [1]: potent anti-angiogenic activity

SMILES: O=C1CCC(N2C(=O)c3ccccc3C2=O)C(=O)N1 (stereo not shown) [STD, thalidomide]
- effect on endothelial cell proliferation (in words) ([2]; 3H-thymidine uptake): significant inhibition of endothelial cell proliferation
- % Inhibition vs 10% Serum ([2]; 38.5 uM): −61.49%
- Average ([3H]-thymidine incorporation, radioactivity) ([2]; 38.5 uM): 2700.214
- Well 1 ([3H]-thymidine incorporation, radioactivity) ([2]; 38.5 uM): 1835.938
- Well 2 ([3H]-thymidine incorporation, radioactivity) ([2]; 38.5 uM): 2018.496
- Well 3 ([3H]-thymidine incorporation, radioactivity) ([2]; 38.5 uM): 4751.43
- Well 4 ([3H]-thymidine incorporation, radioactivity) ([2]; 38.5 uM): 2194.99
- % Inhibition vs 10% Serum ([2]; 96 uM): 30.39%
- Average ([3H]-thymidine incorporation, radioactivity) ([2]; 96 uM): 1163.906
- Well 1 ([3H]-thymidine incorporation, radioactivity) ([2]; 96 uM): 1736.688
- Well 2 ([3H]-thymidine incorporation, radioactivity) ([2]; 96 uM): 850.094
- Well 3 ([3H]-thymidine incorporation, radioactivity) ([2]; 96 uM): 1083.54
- Well 4 ([3H]-thymidine incorporation, radioactivity) ([2]; 96 uM): 985.3011
- % Inhibition vs 10% Serum ([2]; 192.5 uM): 78.48%
- Average ([3H]-thymidine incorporation, radioactivity) ([2]; 192.5 uM): 359.8271
- Well 1 ([3H]-thymidine incorporation, radioactivity) ([2]; 192.5 uM): 255.2577
- Well 2 ([3H]-thymidine incorporation, radioactivity) ([2]; 192.5 uM): 435.4396
- Well 3 ([3H]-thymidine incorporation, radioactivity) ([2]; 192.5 uM): 336.7686
- Well 4 ([3H]-thymidine incorporation, radioactivity) ([2]; 192.5 uM): 411.8425
- % Inhibition vs 10% Serum ([2]; 289 uM): 85.34%
- Average ([3H]-thymidine incorporation, radioactivity) ([2]; 289 uM): 245.0808
- Well 1 ([3H]-thymidine incorporation, radioactivity) ([2]; 289 uM): 198.4536
- Well 2 ([3H]-thymidine incorporation, radioactivity) ([2]; 289 uM): 273.8429
- Well 3 ([3H]-thymidine incorporation, radioactivity) ([2]; 289 uM): 272.3789
- Well 4 ([3H]-thymidine incorporation, radioactivity) ([2]; 289 uM): 235.6478
- % Inhibition vs 10% Serum ([2]; 385 uM): 86.86%
- Average ([3H]-thymidine incorporation, radioactivity) ([2]; 385 uM): 219.7341
- Well 1 ([3H]-thymidine incorporation, radioactivity) ([2]; 385 uM): 141.5772
- Well 2 ([3H]-thymidine incorporation, radioactivity) ([2]; 385 uM): 255.4687
- Well 3 ([3H]-thymidine incorporation, radioactivity) ([2]; 385 uM): 210.2551
- Well 4 ([3H]-thymidine incorporation, radioactivity) ([2]; 385 uM): 271.6354
- anti-angiogenic efficacy against VEGF and bFGF induced angiogenesis [3]: significant anti-angiogenic efficacy
- inhibition of the in vitro proliferation of endothelial cells [4]: ability to inhibit
